Test results reported in patent US20100028419A1, “MEMBRANE(S) AND USES THEREOF” (priority 2007, published 2010).

Tests used:
MCF-7 cells = experiment: In vitro transfection: uptake of fragmented ODN-cubic membrane complexes, fluorescence microscopy and TEM; format: cell-based, human; details: 5 h
Procedure: Isolated mitochondria pellets (from fed, 10 days starved Chaos cells and mice liver) from Example 1 and transfected MCF-7 cell pellet prepared according to Example 4 were studied by the conventional TEM technique. Samples in the pellet forms were first fixed individually with 2.5% glutaraldehyde in 1×PBS at 4° C. After washing 4 times with 1×PBS buffer over 1 h to remove glutaraldehyde, the samples were post-fixed with 1% osmium tetroxide in 1× PBS buffer (pH 7.4) for 20 min at room temperature. The specimens were then washed 4 times with the 1×PBS buffer at 4° C. Thereafter 3% gelatin in PBS was added for 30 min before spinning down to collect the pellets at 2,500 rpm for 5 min. The specimens were stored at 4° C. overnight and the steps of adding 2.5% glutaraldehyde in PBS and washing with PBS were repeated for another cycle. The bigger specimens were trimmed into small cubes (1 mm in length) and washed with distilled water for 5 min. Dehydration through ethanol series was done using ethanol of 25%, 50%, 75%, 95% and 100% for 10 min each at room temperature. The specimens were then infiltrated with 100% acetone: resin in 1:1 ratio for 30 min at room temperature and with 100% acetone: resin in 1:6 ratio overnight. […]
There were three negative controls. […] The remaining cells were viewed 5 h post-transfection under the fluorescence microscope for the uptake of tagged-ODNs.

amoeba Chaos cells = experiment: Continuous addition of DPA (C22:5) into amoeba culture medium, TEM study; format: cell-based, Chaos carolinense; details: 0.1 mM final concentration, fed Chaos cells with Paramecium present, 3 additions on alternate days, fixed at day 5
Procedure: All-cis-4,7,10,13,16 Docosapentaneoic Acid (DPA, C22:5n-6) (Sigma) and Cis-7,10,13,16,19 DPA (C22:5n-3) (Sigma) were dissolved in Diethyl Ether and added to the amoeba culture media at a final concentration of 0.1 mM. DPA (n-3) and DPA (n-6) were added separately after amoeba washing and in the presence of the food organisms (Paramecium multimicronucleatum). The procedure was performed every alternative day for a total of 3 times according to the regular feeding schedule. At day 5 post-DPA treatment Chaos cells were fixed in 2.5% glutaraldehyde for TEM processing according to the procedure described in Example 6.

| Compound | inclusion bodies in cells (TEM) (MCF-7 cells) | inner mitochondrial membrane transformation to cubic organization (TEM) (amoeba Chaos cells) |
| --- | --- | --- |
| 5′ tct ccc agc gtg cgc cat 3′ (DNA TCTCCCAGCGTGCGCCAT; chemistry not given here) [naked ODNs] | no inclusion bodies observed |  |
| CC/C=C\C/C=C\C/C=C\C/C=C\C/C=C\CCCCCC(=O)O [DPA (n-3), Cis-7,10,13,16,19 DPA] |  | did not have the same drastic effects on the inner mitochondrial membrane organization |
| CCCCC/C=C\C/C=C\C/C=C\C/C=C\C/C=C\CCC(=O)O [DPA (n-6), All-cis-4,7,10,13,16 Docosapentaneoic Acid] |  | enhanced their inner mitochondrial membrane transformation from random tubular (A) to cubic organization (D) |
